From publication PMC6494957 (Frontiers in Microbiology, 2019)

How the values were obtained:
[1] = test system: P. mirabilis (n = 21) clinical isolates from otitis externa cases in dogs; assay: MIC/MBC and checkerboard, canine otitis externa isolates; format: cell-based, Proteus mirabilis
Source text: (§1) Escherichia coli ATCC 25922, E. coli ATCC 11229, P. aeruginosa ATCC 27853, P. aeruginosa PA01, Pseudomonas putida ATCC 17428, P. mirabilis ATCC 43071, K. pneumoniae ATCC 13883, A. baumannii ATCC 19606, and A. baumannii ATCC 12457 were used for preliminary susceptibility testing and combination experiments. S. aureus ATCC 29213 and S. pneumoniae ATCC 49619 were used as internal quality controls. A variety of bacterial organisms from both human and canine infections were investigated in this study (n = 119 isolates in total). Twenty-eight clinical Acinetobacter spp. isolates were obtained from cases of human skin and soft tissue infections, including 18 Acinetobacter baumannii and 10 A. calcoaceticus, kindly provided by a person (Institute of Medical and Veterinary Science, South Australia). […] Ninety-one clinical isolates were obtained from cases of canine otitis externa, including seven methicillin-susceptible S. pseudintermedius (MSSP), 13 multidrug- and methicillin-resistant S. pseudintermedius (MRSP) ([Saputra et al., 2017]), 20 beta-haemolytic Streptococcus spp., 30 P. aeruginosa (10 of them resistant to gentamicin and 21 P. mirabilis isolates). These isolates were obtained from the bacterial collection of the national survey of antimicrobial resistance in animals conducted in Australia. Swab samples from dogs with signs of otitis externa were collected by veterinarians and submitted to government, private or university diagnostic laboratories throughout Australia. After routine bacterial identification and the removal of confidential information, the participating veterinary diagnostic laboratories submitted the bacteria and their clinical information to PC2 Laboratories, Australian Centre for Antimicrobial Resistance Ecology, School of Animal and Veterinary Sciences, University of Adelaide, Roseworthy Campus, Roseworthy, SA, Australia, for further study. Thus, animal ethics approval was not required in this study. These organisms were identified to species level using biochemical testing and MALDI-TOF mass spectrometry (Bruker, Preston, VIC, Australia).
(§2) The MIC for ampicillin or gentamicin against each isolate was determined for each test to serve as an internal quality control. The MICs of isolates were determined by visual reading and using an EnSpire Multimode Plate Reader 2300 atA600nm.
(§3) Briefly, 10 μl aliquots from each duplicate well from the MIC assays (starting from the MIC for each compound) were inoculated onto a sheep blood agar (SBA) plate and incubated at 37°C.
(§4) Briefly, antimicrobial stock solutions for robenidine and PMBN were prepared at a concentration of 12.8 mg/ml in DMSO. […] A 1 μl aliquot of the first compound from each combination was dispensed along the abscissa (from row A to G) of the 96-well microplate, while the second compound was dispensed along the ordinate (from column 12 to column 3) using an electronic multichannel pipette followed by 89 μl of LB broth. Each well of the plate was inoculated with an aliquot of 10 μl bacterial suspension at a concentration of 1-5 × 10^6 colony forming units (CFU) per ml. Subsequently, the plate was incubated at 37°C for 24 h. The fractional inhibitory concentration index (FICI) described the results of the combinations, and was calculated utilizing the following formula:
(§5) DRI = MIC of drug alone/MIC of drug in combination

[2] = test system: S. pseudintermedius (n = 20) clinical isolates from otitis externa cases in dogs; assay: as above; format: cell-based, Staphylococcus pseudintermedius
Source text: as §1, §2, §3, §4, §5

P. aeruginosa PA01 = assay: MIC broth microdilution and checkerboard; format: cell-based, Pseudomonas aeruginosa
Method: as §2, §4, §5

[3] = test system: preformed biofilms of P. aeruginosa PA01 and clinical isolates of P. aeruginosa; assay: Antibiofilm susceptibility (MBEC device) and biofilm checkerboard; format: cell-based, Pseudomonas aeruginosa; conditions: P. aeruginosa biofilms; up to 128 μg/ml; 24 h
Method: Briefly, biofilms of P. aeruginosa PA01, two clinical isolates of P. aeruginosa isolates and two clinical isolates of S. pseudintermedius were formed by inoculating 150 μl of 10^7 CFU/ml of each bacterial suspension in the MBEC^TM device. The inoculated device was aerobically incubated on an orbital shaker at 37°C (OM11, Ratek Instruments Pty Ltd., Australia) for 24 h to produce equivalent (Uniform) biofilms on all pegs. […] Following antimicrobial challenge, the biofilms were rinsed twice with phosphate buffered saline (pH = 7) and disrupted via sonication (Soniclean, Model 160TD, Australia) for 10 min into the recovery medium. Viable cell counts were determined for recovered cells (colony-forming units per peg) after preparing a serial dilution and plating 10 μl in duplicates of each dilution onto plate count agar. Viable counts were then expressed as a percentage of the mean CFU of growth controls. MBEC was defined as the lowest concentration of antimicrobial agent that eradicates the biofilms recovered from the antimicrobial challenge.
Briefly, the MBEC^TM High-throughput assay system (MBEC^TM BioProducts, Innovotech, Canada) was used for the preparation of Gram-positive and Gram-negative biofilm producing bacteria as described above for antibiofilm susceptibility testing. […] Subsequently, the plate was incubated at 37°C for 24 h.

[4] = test system: P. aeruginosa (n = 30) clinical isolates from otitis externa cases in dogs; assay: MIC/MBC and checkerboard, canine otitis externa isolates; format: cell-based, Pseudomonas aeruginosa
Source text: as §1, §2, §3, §4, §5

P. putida ATCC 17428 = assay: microbe, parasite or virus in culture
Method: as §2, §4, §5

[5] = test system: Beta-haemolytic streptococci (n = 20) clinical isolates from otitis externa cases in dogs; assay: MIC/MBC and checkerboard, canine otitis externa isolates; format: cell-based, beta-haemolytic Streptococcus spp.
Source text: as §1, §2, §3, §4, §5

[6] = concentration of the labelled component
[7] = P. putida ATCC 17428, concentration of the labelled component

N=C(N/N=C/c1ccc(Cl)cc1)N/N=C/c1ccc(Cl)cc1 [ROB, robenidine]
MBC/MIC, ROB in combination with EDTA [1]: ≥2 | MIC50 ([1]; Proteus mirabilis, canine otitis externa, read-out: MIC50, single drug): > 256 µg/mL | MIC90 ([1]; Proteus mirabilis, canine otitis externa, read-out: MIC90, single drug): > 256 µg/mL | MIC range, single drug ([1]; canine otitis externa): >256 µg/mL | MIC50, in combination of EDTA and ROB [1, 6]: 0.125 µg/mL | MIC90, in combination of EDTA and ROB [1, 6]: 0.5 µg/mL | MIC range, in combination of EDTA and ROB [1, 6]: 0.125 to 4 µg/mL | MBC/MIC, ROB in combination with EDTA [2]: 2 | MIC50 ([2]; Staphylococcus pseudintermedius, canine otitis externa, read-out: MIC50, single drug): 2 µg/mL | MIC90 ([2]; Staphylococcus pseudintermedius, canine otitis externa, read-out: MIC90, single drug): 2 µg/mL | MIC range, single drug ([2]; canine otitis externa): 1 to 4 µg/mL | MIC50, in combination of EDTA and ROB [2, 6]: 1 µg/mL | MIC90, in combination of EDTA and ROB [2, 6]: 1 µg/mL | MIC range, in combination of EDTA and ROB [2, 6]: 0.25 to 2 µg/mL | MBC/MIC, single drug ([2]; footnote for BS not shown): 1.5 | DRI EDTA:ROB (P. aeruginosa PA01; DRI of the labelled component): 256 | MIC (P. aeruginosa PA01; Pseudomonas aeruginosa, read-out: MIC, single drug): > 256 µg/mL | MIC in combination EDTA:ROB (P. aeruginosa PA01; [6]): 1.25 µg/mL | antibiofilm activity [3]: did not show any antibiofilm activity | MBC/MIC, ROB in combination with EDTA [4]: ≥2 | MIC50 ([4]; Pseudomonas aeruginosa, canine otitis externa, read-out: MIC50, single drug): > 256 µg/mL | MIC90 ([4]; Pseudomonas aeruginosa, canine otitis externa, read-out: MIC90, single drug): > 256 µg/mL | MIC range, single drug ([4]; canine otitis externa): >256 µg/mL | MIC50, in combination of EDTA and ROB [4, 6]: 0.25 µg/mL | MIC90, in combination of EDTA and ROB [4, 6]: 2 µg/mL | MIC range, in combination of EDTA and ROB [4, 6]: 0.125 to 4 µg/mL | DRI EDTA:ROB (P. putida ATCC 17428; P. putida ATCC 17428, DRI of the labelled component): 256 | MIC in combination EDTA:ROB (P. putida ATCC 17428; [7]): 1.25 µg/mL | MIC in combination PMBN:ROB (P. putida ATCC 17428; [7]): 1:1 μg/ml | MIC (P. putida ATCC 17428; Pseudomonas putida, ATCC17428, read-out: MIC, single drug): > 256 µg/mL | MBC/MIC, ROB in combination with EDTA [5]: 2 | MIC50 ([5]; Streptococcus, canine otitis externa, read-out: MIC50, single drug): 8 µg/mL | MIC90 ([5]; Streptococcus, canine otitis externa, read-out: MIC90, single drug): 8 µg/mL | MIC range, single drug ([5]; canine otitis externa): 4 to 16 µg/mL | MIC50, in combination of EDTA and ROB [5, 6]: 2 µg/mL | MIC90, in combination of EDTA and ROB [5, 6]: 4 µg/mL | MIC range, in combination of EDTA and ROB [5, 6]: 1 to 8 µg/mL | MBC/MIC, single drug ([5]; footnote for BS not shown): 1.75
